The record followed here is patent publication US20240075033A1, “ALK5 INHIBITORS FOR TREATING MYELODYSPLASTIC SYNDROME” (Sumitomo Pharma Oncology, Inc., priority 2019, published 2024).

Series [1] is described as follows: Hygroscopicity (DVS tests). Particulars: for Hygroscopicity (%): water uptake at 25° C./80% RH. The class given is physicochemical.
Series [2] is described as follows: Solid-state stability under 40° C./75% RH for one week. Format: physicochemical.
Series [3] in a line: Kinetic solubility in pH 2, 5, and 7 buffers. Format: physicochemical. The conditions noted are these: for Kinetic Solubility: in pH 2, 5 and 7 buffers, compared with freebase Form A.
For series [4], the target named is T1, ALK5 (Homo sapiens, UniProt P36897).
T1 sequence (P36897 34-503): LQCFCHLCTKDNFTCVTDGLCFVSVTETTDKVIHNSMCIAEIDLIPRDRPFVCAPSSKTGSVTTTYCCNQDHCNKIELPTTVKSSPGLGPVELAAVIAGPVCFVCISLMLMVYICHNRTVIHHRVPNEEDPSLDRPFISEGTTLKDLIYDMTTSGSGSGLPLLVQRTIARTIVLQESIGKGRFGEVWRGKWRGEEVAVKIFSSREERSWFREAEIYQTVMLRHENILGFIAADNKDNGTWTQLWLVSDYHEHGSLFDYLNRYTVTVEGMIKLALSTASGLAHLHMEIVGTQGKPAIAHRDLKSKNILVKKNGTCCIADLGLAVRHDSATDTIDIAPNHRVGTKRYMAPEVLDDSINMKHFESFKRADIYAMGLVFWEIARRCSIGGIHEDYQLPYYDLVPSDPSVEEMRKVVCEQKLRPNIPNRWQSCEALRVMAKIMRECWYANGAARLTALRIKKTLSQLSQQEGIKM
Kind of series: ALK5 nanobret assay in HEK293 cells transfected with ALK5-Nanoluc fusion. Particulars: luciferase tagged ALK5, fluorescent tracer competition (BRET), structure (I) tested as HCl salt. The class given is binding. The procedure:
An HCl salt of the compound of structure (I) was tested in an ALK5 nanobret assay. HEK293 cells were transfected with the ALK5-Nanoluc fusion (Promega) vector, which encodes for a luciferase tagged form of ALK5. For testing of the compound of structure (I), transfected cells were pretreated with drug. Subsequently, a fluorescent tracer was added and the fluorescence signal was measured.
In this assay, luminescence develops via the nanoluciferase tagged ALK5, which can transfer signal via bioluminescence energy transfer (BRET) to the tracer, yielding a fluorescent signal.
Background: Bioluminescence resonance energy transfer reports proximity on the nanometre scale.

The target of series [5] is T1, ALK5. Kind of series: Rhabdomyosarcoma (RD) cell SMAD reporter (RDSR) assay. Format: cell-based. More on the design: The RD cell line was transfected with the pGL4.48(luc2P/SBE/Hygro) vector; endogenous in cells; host or cells: RD rhabdomyosarcoma cells stably transfected with the SBE-luciferase reporter only. Particulars: RD cells transfected with pGL4.48(luc2P/SBE/Hygro) vector, pretreated with drug, induced with 50 pg/mL TGFβ1 for up to 24 hours; structure (I) tested as HCl salt.

Where a name gives a salt, the structure may show the parent alone. Read-outs that look alike come from different tables or passages of the source.

With `COc1cc(Nc2nccc(Nc3cccnc3-c3ccccn3)n2)ccc1N1CCN(C)CC1` [Freebase Form A], in series [1], the “form change after DVS tests” value was “no form change” and the “Hygroscopicity (%)” value is reported as “(0.60) %”. In addition, the “Solid-state Stability” value in series [2] is listed as “Good physicochemical properties under”.
With `COc1cc(Nc2nccc(Nc3cccnc3-c3ccccn3)n2)ccc1N1CCN(C)CC1` [HCl Salt Form A], the “Kinetic Solubility” value is reported as “increased solubility” in series [3] and “HCl Form A showed increased solubility” in series [3] (listed as HCl Form A). The disproportionation entry in series [3] (pH 7 buffer) was “disproportionation was observed”. For the same compound, in series [1], the “form change after DVS tests” value was “no form change”. Further, the Hygroscopicity entry in series [1] (class based on water uptake at 25° C./80% RH) is reported as “Slightly hygroscopic”. Further, in series [1], the “Hygroscopicity (%)” value is “(0.86) %”. The “Solid-state Stability” value in series [2] was “Good physicochemical properties under”; in series [2] (listed as HCl salt Form A) it was “good physicochemical properties”.
Broadly, the IC50 is the concentration that inhibits the measured activity by half. For the compound `COc1cc(Nc2nccc(Nc3cccnc3-c3ccccn3)n2)ccc1N1CCN(C)CC1` [compound of structure (I)], the IC50 on ALK5 [4] worked out at 2.3 µM; on ALK5 [5], 0.309 µM.
